Values of other authors, collected in patent US20120276003A1, “COMPOUND CONTAINING AN OXYGEN-15, PREPARATION AND USE THEREOF, AND COMPOSITION COMPRISING THEREOF” (Beijing Top Grade Medical Equipment Co., Ltd., priority 2011, published 2012).

Settings: perfusion imaging agent; stated 'academically'

## [15OH2] [^15O-water]
  one-time through uptake rate: ~100%
